Species: Rattus norvegicus
Assay: Open TG-GATES - Regimen: Daily Repeat
Type: toxicity, organism-based, Sprague-Dawley
Parameters: regimen Daily Repeat, gender Male, age 6 weeks
Conditions: in vivo, po, route gavage; for APTT / Bas / Eos / Fbg / Hb / Ht / Lym / MCH / MCHC / MCV / Mono / Neu / PT / Plat / RBC / Ret / WBC: tissue Blood; for KIDNEY_L / KIDNEY_R / KIDNEY_TOTAL: tissue Kidney; for LIVER: tissue Liver; for A/G / ALP / ALT / AST / BUN / CRE / Ca / Cl / DBIL / GLC / IP / K / LDH / Na / PL / RALB / TBIL / TC / TG / TP / gamma-GTP: tissue Plasma
[1] = 300 mg/kg, 72 h, dose level Middle, time 3 day
[2] = 300 mg/kg, […], dose level Middle, time 7 day
[3] = 300 mg/kg, […], dose level Middle, time 14 day
[4] = 300 mg/kg, […], dose level Middle, time 28 day
[5] = 1000 mg/kg, 72 h, dose level High, time 3 day
[6] = 1000 mg/kg, […], dose level High, time 7 day
[7] = 1000 mg/kg, […], dose level High, time 14 day
[8] = 1000 mg/kg, […], dose level High, time 28 day

## CC(S)C(=O)NCC(=O)O (centres undefined) [TIOPRONIN]
[1]
  TERMINAL_BW: 224.5 g
  APTT: 22.4 s
  Bas: 0%
  Eos: 0.8%
  Fbg: 299 mg/dL
  Hb: 13.5 g/dL
  Ht: 40%
  Lym: 78.4%
  MCH: 21.1 pg
  MCHC: 33.6%
  MCV: 62.7 fL
  Mono: 2.4%
  Neu: 17.2%
  PT: 15.2 s
  Plat: 132 x10_4/uL
  RBC: 639.8 x10_4/ul
  Ret: 7.5%
  WBC: 96 x10_2/uL
  KIDNEY_L: 1 g
  KIDNEY_R: 1 g
  KIDNEY_TOTAL: 2 g
  LIVER: 10.7 g
  A/G: 1.2
  ALP: 1564.4 IU/L
  ALT: 42 IU/L
  AST: 75.2 IU/L
  BUN: 16 mg/dL
  CRE: 0.2 mg/dL
  Ca: 10.6 mg/dL
  Cl: 105.8 meq/L
  DBIL: 0 mg/dL
  GLC: 187.4 mg/dL
  IP: 7.3 mg/dL
  K: 4.4 meq/L
  LDH: 205.6 IU/L
  Na: 140.4 meq/L
  PL: 131.4 mg/dL
  RALB: 3 g/dL
  TBIL: 0.008 mg/dL
  TC: 73.4 mg/dL
  TG: 71.2 mg/dL
  TP: 5.5 g/dL
  gamma-GTP: 1.4 IU/L
[2]
  TERMINAL_BW: 258 g
  APTT: 22.2 s
  Bas: 0%
  Eos: 1.2%
  Fbg: 330.4 mg/dL
  Hb: 14 g/dL
  Ht: 40.4%
  Lym: 77.6%
  MCH: 21.7 pg
  MCHC: 34.9%
  MCV: 62.1 fL
  Mono: 2.4%
  Neu: 18%
  PT: 15.3 s
  Plat: 121.4 x10_4/uL
  RBC: 649.6 x10_4/ul
  Ret: 6.4%
  WBC: 101.8 x10_2/uL
  KIDNEY_L: 1.1 g
  KIDNEY_R: 1.1 g
  KIDNEY_TOTAL: 2.2 g
  LIVER: 12 g
  A/G: 1.1
  ALP: 1316.6 IU/L
  ALT: 36 IU/L
  AST: 63.4 IU/L
  BUN: 15.8 mg/dL
  CRE: 0.1 mg/dL
  Ca: 10.6 mg/dL
  Cl: 106.6 meq/L
  DBIL: 0 mg/dL
  GLC: 186.4 mg/dL
  IP: 7.3 mg/dL
  K: 4.3 meq/L
  LDH: 150.2 IU/L
  Na: 140.6 meq/L
  PL: 144.6 mg/dL
  RALB: 2.9 g/dL
  TBIL: 0 mg/dL
  TC: 70.6 mg/dL
  TG: 146.2 mg/dL
  TP: 5.5 g/dL
  gamma-GTP: 1.8 IU/L
[3]
  TERMINAL_BW: 313.9 g
  APTT: 23.7 s
  Bas: 0%
  Eos: 1%
  Fbg: 287.6 mg/dL
  Hb: 14 g/dL
  Ht: 41.2%
  Lym: 83%
  MCH: 20.3 pg
  MCHC: 33.9%
  MCV: 59.7 fL
  Mono: 2.2%
  Neu: 13.2%
  PT: 15.5 s
  Plat: 109.8 x10_4/uL
  RBC: 689.8 x10_4/ul
  Ret: 5%
  WBC: 142 x10_2/uL
  KIDNEY_L: 1.2 g
  KIDNEY_R: 1.2 g
  KIDNEY_TOTAL: 2.5 g
  LIVER: 13.9 g
  A/G: 1.3
  ALP: 1441.2 IU/L
  ALT: 43.8 IU/L
  AST: 65.8 IU/L
  BUN: 20.4 mg/dL
  CRE: 0.2 mg/dL
  Ca: 10.6 mg/dL
  Cl: 106.8 meq/L
  DBIL: 0 mg/dL
  GLC: 194.6 mg/dL
  IP: 6.5 mg/dL
  K: 4.4 meq/L
  LDH: 143.4 IU/L
  Na: 140.8 meq/L
  PL: 151.8 mg/dL
  RALB: 3.1 g/dL
  TBIL: 0.004 mg/dL
  TC: 70.8 mg/dL
  TG: 155 mg/dL
  TP: 5.6 g/dL
  gamma-GTP: 2.2 IU/L
[4]
  TERMINAL_BW: 381.6 g
  APTT: 24.6 s
  Bas: 0%
  Eos: 1%
  Fbg: 323.4 mg/dL
  Hb: 15.4 g/dL
  Ht: 43.3%
  Lym: 82.6%
  MCH: 20.1 pg
  MCHC: 35.5%
  MCV: 56.6 fL
  Mono: 2%
  Neu: 12.6%
  PT: 16.1 s
  Plat: 95.9 x10_4/uL
  RBC: 764.2 x10_4/ul
  Ret: 2.6%
  WBC: 146.8 x10_2/uL
  KIDNEY_L: 1.4 g
  KIDNEY_R: 1.4 g
  KIDNEY_TOTAL: 2.9 g
  LIVER: 16.5 g
  A/G: 1.2
  ALP: 1229.6 IU/L
  ALT: 42.6 IU/L
  AST: 64.6 IU/L
  BUN: 18.6 mg/dL
  CRE: 0.2 mg/dL
  Ca: 10.9 mg/dL
  Cl: 106 meq/L
  DBIL: 0 mg/dL
  GLC: 192.4 mg/dL
  IP: 6.5 mg/dL
  K: 4.1 meq/L
  LDH: 154.2 IU/L
  Na: 143 meq/L
  PL: 142 mg/dL
  RALB: 3.3 g/dL
  TBIL: 0.016 mg/dL
  TC: 72 mg/dL
  TG: 127.6 mg/dL
  TP: 6.1 g/dL
  gamma-GTP: 1.8 IU/L
[5]
  TERMINAL_BW: 223.7 g
  APTT: 23.7 s
  Bas: 0%
  Eos: 1.2%
  Fbg: 288 mg/dL
  Hb: 13 g/dL
  Ht: 39.2%
  Lym: 73.8%
  MCH: 20.8 pg
  MCHC: 33.2%
  MCV: 62.7 fL
  Mono: 3.6%
  Neu: 20.8%
  PT: 15.8 s
  Plat: 113.1 x10_4/uL
  RBC: 626.6 x10_4/ul
  Ret: 6.9%
  WBC: 105.8 x10_2/uL
  KIDNEY_L: 1 g
  KIDNEY_R: 1 g
  KIDNEY_TOTAL: 2 g
  LIVER: 10.7 g
  A/G: 1.3
  ALP: 1581.6 IU/L
  ALT: 49.2 IU/L
  AST: 77.2 IU/L
  BUN: 15.2 mg/dL
  CRE: 0.2 mg/dL
  Ca: 10.7 mg/dL
  Cl: 105.8 meq/L
  DBIL: 0.002 mg/dL
  GLC: 186.2 mg/dL
  IP: 7.8 mg/dL
  K: 4.4 meq/L
  LDH: 173.4 IU/L
  Na: 140.8 meq/L
  PL: 131 mg/dL
  RALB: 2.9 g/dL
  TBIL: 0.014 mg/dL
  TC: 68.6 mg/dL
  TG: 83.4 mg/dL
  TP: 5.2 g/dL
  gamma-GTP: 1.8 IU/L
[6]
  TERMINAL_BW: 254.3 g
  APTT: 21.9 s
  Bas: 0%
  Eos: 1%
  Fbg: 297 mg/dL
  Hb: 13.4 g/dL
  Ht: 39.6%
  Lym: 77%
  MCH: 21.4 pg
  MCHC: 33.8%
  MCV: 63.3 fL
  Mono: 2.6%
  Neu: 18.8%
  PT: 15.4 s
  Plat: 122.7 x10_4/uL
  RBC: 626 x10_4/ul
  Ret: 6.8%
  WBC: 115.2 x10_2/uL
  KIDNEY_L: 1.1 g
  KIDNEY_R: 1.2 g
  KIDNEY_TOTAL: 2.3 g
  LIVER: 12.3 g
  A/G: 1.2
  ALP: 1407 IU/L
  ALT: 45 IU/L
  AST: 67.8 IU/L
  BUN: 18.4 mg/dL
  CRE: 0.1 mg/dL
  Ca: 10.8 mg/dL
  Cl: 105.4 meq/L
  DBIL: 0 mg/dL
  GLC: 177.2 mg/dL
  IP: 7.9 mg/dL
  K: 4.6 meq/L
  LDH: 181.4 IU/L
  Na: 140 meq/L
  PL: 132.6 mg/dL
  RALB: 2.9 g/dL
  TBIL: 0.006 mg/dL
  TC: 67.8 mg/dL
  TG: 90.8 mg/dL
  TP: 5.2 g/dL
  gamma-GTP: 1.8 IU/L
[7]
  TERMINAL_BW: 296.9 g
  APTT: 24.7 s
  Bas: 0%
  Eos: 0.8%
  Fbg: 266.2 mg/dL
  Hb: 13.9 g/dL
  Ht: 41.1%
  Lym: 81.2%
  MCH: 20.8 pg
  MCHC: 33.7%
  MCV: 61.7 fL
  Mono: 2.4%
  Neu: 14.4%
  PT: 15.9 s
  Plat: 124 x10_4/uL
  RBC: 666.8 x10_4/ul
  Ret: 5.2%
  WBC: 129.5 x10_2/uL
  KIDNEY_L: 1.3 g
  KIDNEY_R: 1.3 g
  KIDNEY_TOTAL: 2.6 g
  LIVER: 13.3 g
  A/G: 1.3
  ALP: 1175.6 IU/L
  ALT: 41.6 IU/L
  AST: 70.4 IU/L
  BUN: 23 mg/dL
  CRE: 0.2 mg/dL
  Ca: 10.5 mg/dL
  Cl: 105 meq/L
  DBIL: 0 mg/dL
  GLC: 182.6 mg/dL
  IP: 7 mg/dL
  K: 4.4 meq/L
  LDH: 182.6 IU/L
  Na: 140.2 meq/L
  PL: 125.4 mg/dL
  RALB: 3.1 g/dL
  TBIL: 0.01 mg/dL
  TC: 60 mg/dL
  TG: 120.2 mg/dL
  TP: 5.6 g/dL
  gamma-GTP: 2 IU/L
[8]
  TERMINAL_BW: 364.7 g
  APTT: 24.2 s
  Bas: 0%
  Eos: 1.2%
  Fbg: 300.8 mg/dL
  Hb: 15 g/dL
  Ht: 42.6%
  Lym: 79%
  MCH: 19.2 pg
  MCHC: 35.3%
  MCV: 54.5 fL
  Mono: 1.8%
  Neu: 16.2%
  PT: 16.1 s
  Plat: 98.3 x10_4/uL
  RBC: 781.4 x10_4/ul
  Ret: 3.1%
  WBC: 124 x10_2/uL
  KIDNEY_L: 1.5 g
  KIDNEY_R: 1.5 g
  KIDNEY_TOTAL: 3 g
  LIVER: 15.3 g
  A/G: 1.2
  ALP: 1066 IU/L
  ALT: 49.2 IU/L
  AST: 71.4 IU/L
  BUN: 17 mg/dL
  CRE: 0.2 mg/dL
  Ca: 10.9 mg/dL
  Cl: 104.2 meq/L
  DBIL: 0 mg/dL
  GLC: 180 mg/dL
  IP: 7.5 mg/dL
  K: 4 meq/L
  LDH: 154.6 IU/L
  Na: 142.6 meq/L
  PL: 135 mg/dL
  RALB: 3.2 g/dL
  TBIL: 0.03 mg/dL
  TC: 63 mg/dL
  TG: 106.2 mg/dL
  TP: 5.8 g/dL
  gamma-GTP: 2 IU/L

— ChEMBL document CHEMBL3885861, “Open TG-GATES”
